Measured values from patent publication US11266743B2, “Peptide compositions and methods of use thereof” (priority 2017, dated 2022).
Entries after “also recorded” stand apart in the source; their conditions may differ.

Columns and labels:
[1] = system: Hela cells stably transfected with mCherry and GFP1-10; test: Split GFP assay (GFP-11 delivery); format: cell-based; settings: 40 μM peptide-GFP-11, 37° C.
Method: To test the ability of CPPs to deliver other cargoes, specifically a protease-sensitive peptide cargo, we modified the well-known split-GFP assay. CPPs were tested for the ability to deliver the polar 16-residue GFP-11 peptide across the membrane barrier. This peptide rescues the fluorescence of the cytosolic endogenous, non-fluorescent GFP1-10 protein. Here, we stably transfected Hela cells with a plasmid containing the full length mCherry and the non-fluorescent GFP1-10. Following incubation with CPP-GFP-11 constructs at multiple concentrations and temperatures for 30 minutes in serum free DMEM, cells were analyzed by flow cytometry for mCherry and GFP fluorescence (FIG. 17). Live cells expressing mCherry (˜50% of the total cells) were gated and their GFP fluorescence was analyzed. Unlike the luciferase splice correction assay where a single corrected mRNA transcript serves as template for many molecules of functional luciferase, the split GFP assay is stoichiometric; a single GFP-11 peptide can bind to a single GFP1-10 protein producing a finite fluorescent response.
Hela cells were transfected with p_mCherry-GFP1-10 (Addgene plasmid #78591) using LIPOFECTAMINE® 3000 (ThermoFisher). Single mCherry positive cells were sorted into 96-well plates using a BD™ FACSARIA™ cell sorter and colonies were maintained under G418 selection at […]. Stably transfected cells were plated in 12-well plates at 100,000 cells/well and grown overnight in complete DMEM. Cells were washed in PBS and incubated in 500 μl of CPP-GFP-11 solution at variable concentrations at 23° C. and 37° C. for 30 minutes. The CPP-GFP-11 solution was aspirated and 100 μl of 0.025% trypsin solution was added to each well. After detachment, cells were suspended in 500 μL of PBS+2% FBS and 20 mM HEPES. Cells were analyzed using a BD™ LSRII flow cytometer. Cells displaying a normal morphology were gated and first analyzed for mCherry fluorescence using the 543 nM laser. mCherry+ cells were used to generate a histogram of GFP fluorescence measured with the 488 nM laser.

[2] = system: HeLa, RAW264.7, HepG2, and MCF-7 cells; test: TAMRA delivery assay (flow cytometry, confocal microscopy); format: cell-based; settings: 0.5 μM CPP-TA + 4.5 μM CPP-C, 30 minutes at 4° C., 22° C., or 37° C.
Method: To determine the effect of the PNA cargo on delivery, we labeled CPPs, lacking the PNA705 cargo, with the fluorophore TAMRA on a C-terminal cysteine residue (CPP-TA) and measured delivery to multiple cell types. TAMRA-labelled CPPs, mixed with unlabeled CPPs at a 1:10 ratio in serum-free DMEM for a final concentration of 5 μM total peptide, was added to HeLa, RAW264.7, HepG2, and MCF-7 cells in 12-well cell culture plates and incubated for 30 minutes at 4° C., 22° C., or 37° C. prior to flow cytometric analysis (FIGS. 9-16). […] Delivery of TAMRA was verified by confocal microscopy for each cell type.
Hela, RAW264.7, HCT116, HepG2, and MCF-7 cells were plated in 12-well plates at 100,000 cells/well. After 24 hours, cells were gently washed in PBS, topped with 500 μl of CPP-TA solution containing 0.5 μM CPP-TA+4.5 uM CPP-C in sfDMEM without phenol red, and incubated for 30 min at either 4° C., 23° C., or 37° C. The incubation solution was aspirated and cells were treated with 100 μl 0.025% Trypsin for 3 minutes at 23° C. 500 μl DMEM containing 2% FBS, 125 nM Sytox Green, and 20 mM HEPES was used to suspend the cells. Cells were transferred to a filter-topped flow cytometry tube and analyzed on a BD™ LSR II flow cytometer. Cells displaying a normal morphology were gated and first analyzed for GFP fluorescence using the 488 nM laser. GFP negative cells were used to generate a histogram of TAMRA fluorescence, measured with the 543 nM laser.
Cells were treated as described above for the TAMRA delivery assay and immediately imaged to avoid artifacts resulting from fixation. The distribution of TAMRA and Sytox Green was analyzed using a confocal scanning Nikon Eclipse Ti2 inverted microscope using a 40× oil-immersion objective. Sytox Green was excited using the 488 nM laser and TAMRA was excited using the 543 nM laser.

[3] = system: Hela cells stably transfected with mCherry and GFP1-10; test: Split GFP assay (GFP-11 delivery); format: cell-based; settings: 40 μM peptide-GFP-11, 22° C.
[4] = system: P. aeruginosa; test: Induced resistance, ten serial passages of broth sterilization assays; format: cell-based; settings: ⅔ serially diluted antibiotics, overnight growth
Description: Bacterial resistance against peptide antibiotics is known to occur, although it is reportedly more difficult to induce than resistance against conventional antibiotics. P. aeruginosa can gain resistance to some AMPs through selection for a variant with altered outer membrane composition. We used P. aeruginosa in a screen (FIG. 36) to select against rapid resistance. We tested if P. aeruginosa can stably gain resistance to the rationally designed peptides described herein and we compared their ability to adapt to conventional antibiotics under the same conditions. For ten serial passages, we performed broth sterilization assays using ⅔ serially diluted antibiotics with overnight growth. For each passage, we used the bacteria that grew at the highest antibiotic concentration to expand overnight for the subsequent generation. […] All of the conventional antibiotics promoted increasing resistance, and two promoted complete resistance by 10 passages.

[5] = system: P. aeruginosa; test: Deep wound infection with luminescent P. aeruginosa, whole animal imaging; format: in vivo, mice
Method: Deep wounds in mice were infected with a luminescent strain of P. aeruginosa and monitored with whole animal imaging (FIGS. 35-37). In FIG. 36 infections are just beginning to become established. Areas of red indicate maximal bacterial colonization. No treatments have occurred. Treatment was twice per day, with 50 μg of D-NOGCON peptide in 20 μL of vehicle (0.025% acetic acid) starting 2 hours after infection. […] In the control animals (FIG. 36A), the infection is fully established across the entire wound bed and saturated the detector (red color). In the treated animals (FIG. 36B) the infection is much smaller in area and much lower in intensity, indicating it is under control.

[6] = Safety study of aspirated D-NOGCON; format: in vivo, C57BL/6 mice; settings: aspiration
Method: (§1) The mice were then treated with D-NOGCON (SEQ ID NO:37), which were instilled in the trachea, exactly as described above for the administration of bacterial infection. Before attempting to treat a P. aeruginosa infection of the lung, we sought to establish a safe dose for administration of the D-NOGCON peptide via aspiration. Based on in vitro toxicity data (FIGS. 28D and 28E), a dosing regimen of 50 μL of D-NOGCON (100 μM) was administered every 8 hours for 3 days (9 doses). As a no treatment control, we administered 50 μL of PBS on the same schedule.
To monitor the toxicity we measured animal behavior and body weight changes (FIG. 29A). […] In the second safety trial, we administered 50 μL of D-NOGCON (50 μM) twice daily, for three days and monitored the animals behavior and body weight changes (FIG. 29B).

[7] = system: S. aureus; test: Radial diffusion in the presence of RBCs; format: cell-based; parameters: key: The ↑ represents the improvement in performance that would be desired for a viable in vivo antimicrobial peptide; ↓: The symbol represents a regression in desired behavior; *=p<0.05; **=p<0.01; ***=p<0.001; settings: change versus parent sequence; paired t-test
Method: Underlay agarose was prepared by adding 5 g of low EEO agarose and 0.03 g of TSB to 500 mL of 10 mM phosphate buffer (pH=7.4). Overlay agarose was prepared by adding 5 g of low EEO agarose and 30 g of TSB to 500 mL of 10 mM phosphate buffer (pH=7.4). Both solutions were heated until the agarose melted and then were autoclaved. To a rectangular, one-well plate, 20 mL of underlay agarose, inoculated with 8×10^6 CFUs of bacteria, was added. A sterile, 96-well plate replicator from Sigma-Aldrich was set in the molten agarose and removed one the agarose solidified. Antibiotic was prepared at 4 times the final desired concentration. For the antibiotic standard, a serial dilution of 3:4 across a 96-well plate was performed followed by 1:4 dilution with PBS. Otherwise, the peptide was diluted to 20 μM with RBCs and/or serum to give between 2% (1×10^8 cells/mL) and 20% (1×10^9 cells/mL). Solutions were incubated with gentle shaking for 30 minutes at 37° C. […]. Overlay was added, and the plate was incubated upside down overnight. Surface growth was cleared, the plates were sterilized with 25% methanol and 5% acetic acid. Zones of inhibition were photographed and analyzed using ImageJ. (FIG. 21)
The engineered peptide sequences and their derivation from parent sequences is shown, along with the underlying hypothesis described for the first set of peptides (Table 4) and the second set (Table 5). We performed statistical testing for performance in antimicrobial assays in the presence and absence of RBCs, as well as for cytotoxicity. The broth dilution results were tested using a two sample t-test (N=6-22). The radial diffusion results were tested using a paired t-test (N=4). The cytotoxicity results were tested using a paired t-test (N=3). The ↑ represents the improvement in performance that would be desired for a viable in vivo antimicrobial peptide. This corresponds to a decrease in MIC values (increased potency) and decreased cytotoxicity. The symbol represents a regression in desired behavior. (*=p<0.05, **=p<0.01, ***=p<0.001).

[8] = system: P. aeruginosa biofilms; test: Activity against P. aeruginosa biofilms; format: cell-based; settings: 25 μM
Method: Bacterial biofilm formation on implanted medical devices is a serious medical problem because these biofilms can lead to life-threatening systemic infections. We tested selected peptides and rationally designed variants against biofilms formed by P. aeruginosa. […] D-NOGCON reduces viable bacteria by 3.6 logs ( 1/3000 reduction) at 25 μM, while the best conventional antibiotic, Ciprofloxacin, reduced viable bacteria by only 1.7 logs ( 1/55 reduction) at 25 μM.

[9] = system: P. aeruginosa PA01; test: Acute pneumonia induced by P. aeruginosa aspiration; format: in vivo, C57BL/6 mice
Method: Female C57BL/6 mice, aged five weeks, were obtained from Charles River Laboratories. Upon receipt, they were allowed at least one week to recover from transport and acclimate to the new housing environment. Mice were maintained on a standard chow diet. Experiments were performed with mice no younger than six weeks and no older than nine weeks. P. aeruginosa PA01 was cultured overnight in tryptic soy broth (TSB) at 37° C. and shaken at 220 RPM. Prior to infecting the mice, the overnight culture was diluted 100-fold into 25-mL of fresh TSB. The culture was grown for three hours before optical density was determined. Previous growth curve experiments allowed us to dilute this newly expanded culture to 1.4×10^8 CFU/mL. To infect an animal, mice were anesthetized using isoflurane and 50 μL of bacterial suspension (7×10^6 CFUs) was administered via intratracheal instillation. Briefly, the anesthetized mice were suspended from wire by their front feet and blunt forceps were used to extract the tongue. The tongue was pulled out and downward. The bacterial suspension was deposited in the back of the throat with a micropipette. The nares of the animal were then covered while the mouse recovered from anesthesia. The chest was gently rubbed to promote inhalation. The mice were made to inhale 15 times before the tongue was released and the mouse was removed from the wire. The animals were then allowed a minute to fully awaken and then returned to their cages.
as §1
Our initial experiment was survival-based. We infected 8 mice (4 for treatment, 4 for vehicle) with the above bacterial load in 50 μL of PBS and allowed 2 hours of recovery prior to the initial treatment administration. After the recovery period, dosing proceeded as it had for the second safety study (50 μL, 50 μM, 2× daily). […] At the 24-hour time point, mice from both groups lost ˜12% body weight (FIG. 30A). Between 24 and 48-hour timepoints, 3 controls and 1 treated animal were sacrificed (FIG. 30B). […] Euthanasia is required in these cases because the animals are clearly suffering and are not able to obtain the nutrients required for survival. […] The lungs of 3 animals from each treatment group were removed, homogenized, and plated on PIA plates to determine the P. aeruginosa CFU burden (FIG. 30C).
A third study reduced the CFU burden of P. aeruginosa to 7×10^6 and mice were treated as with the previous experiment. As in the previous experiment, both treated and untreated animals lost 10-12% of their body weight after 24 hours (FIG. 31A). […] What was not taken into consideration in this experiment was the propensity for infection to spread to other tissues.

GRKKRRQRRRPPQ [TAT, reference compound]
mCherry positive cells GFP-11 is delivered to [1]: 21% | TAMRA delivery (words, rank order) [2]: CPP-2»CPP-3=CPP-1>CPP-4>TAT=penetratin | mCherry positive cells GFP-11 is delivered to [3]: 7%

RRWARLRLVLAY [ARVA]
induction of resistance [4]: promoted total resistance in a few passages

RRWARRLAFAFRR [D-NOGCON]
wound infection (luminescence imaging) ([5]; after a single day of treatment, 50 μg in 20 μL twice per day starting 2 hours after infection): dramatically reduced compared to the control | integrated luminescence ([5]; first 5 days, treated on days 0, 1, and 2): significant protection, slowing of bacterial growth and more rapid clearance over control | summed activity and behavior scores ([5]; scale 0 (normal) to 3 each for five items, maximum 15): more normal behavior; also recorded: better summed behavioral scores | tolerability (behavior and body weight changes) ([6]; 50 μL of 50 μM twice daily for three days): sufficiently safe | tolerability (behavior and body weight changes) ([6]; 50 μL of 100 μM every 8 hours for 3 days): too toxic for the animals to tolerate | Radial Diffusion vs. S. aureus [7]: ↑Radial diffusion vs. | reduction of viable bacteria in biofilm [8]: 3.6 logs | body weight lost ([9]; survival study, 24-hour time point, same in vehicle group): ~12% | survival of the initial 24 hours ([9]; survival study, 50 μL, 50 μM, 2× daily, first dose 2 hours after infection): All mice from both treatment groups survived | animals sacrificed ([9]; survival study, between 24 and 48-hour timepoints, 4 mice per group, 3 controls sacrificed): 1 | body weight lost ([9]; survival study, day 3, all animals of both groups): more than 20% | infection titer ([9]; survival trial, 50 μL, 50 μM, 2× daily): little improvement in the infection titer | infection titer over control ([9]; third experiment, lower CFU burden): little improvement | body weight lost ([9]; third study, after 24 hours, same in untreated animals): 10-12% | CFU burden versus untreated ([9]; third study, two doses over 24 hours): non-significant increase
